From patent US12239643B2, “Therapeutic agent for inflammatory diseases, autoimmune diseases, fibrotic diseases, and cancer diseases” (MEIJI SEIKA PHARMA CO., LTD., priority 2018, dated 2025)
Where two headings read alike, the source gives them in different places.

Legend:
PDE4 = assay: Evaluation of PDE4 inhibitory activity, scintillation proximity assay; format: biochemical; conditions: scintillation proximity assay
Outline: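 IC50 was derived from inhibition curves, referenced to an enzyme-free blank and a DMSO-only control. Compound, PDE4 preparation and tritiated cAMP reacted 120 min at RT in Tris-HCl buffer (pH 7.4) with MgCl2, EGTA and BSA; YSi-SPA beads with ZnSO4 bound product before scintillation counting.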

[1] = Hepatic metabolic stability (rat liver microsome method); format: in vitro ADME; conditions: rat liver microsomes 0.5 mg/mL, test substance 1 μM, NADPH 1 mM, 37° C., 30 minutes
Experimental: Metabolic stability in rat liver microsomes was evaluated by the following method. First, in 100 mM of potassium phosphate buffer solution (pH 7.4), liver microsomes (concentration at reaction: 0.5 mg/mL) and the test substance (concentration at reaction: 1 μM) were preincubated at 37° C. Five minutes later, 100 mM of potassium phosphate buffer (pH 7.4) solution of NADPH (concentration at reaction: 1 mM) was mixed thereto to start the reaction. After a predetermined time passed, acetonitrile was mixed to the reaction mixture to stop the reaction. Here, the reaction time was 0 and 30 minutes, and drug concentration measurement was performed for each time period using LC-MS. The % remaining value of the test compound was calculated from the value for 0 minutes and the value for 30 minutes, using the calculation formula below: % Remaining=(Value for 30 Minutes/Value for 0 Minutes)×100
The results of measuring the rat liver microsome metabolic Stability (% remaining for 30-minute reaction) for the test compound by the above method were evaluated in accordance with the following evaluated basis; A: a % remaining rate of 75% or more, B: 60% or more and less than 75%, C: 45% or more and less than 60%, and D: less than 45%.

[2] = read-out: PDE4 Inhibitory Activity (Evaluation 1; concentration for the inhibition rate of 50%)
[3] = class symbols of Evaluation 1, read-out: PDE4 Inhibitory Activity (concentration for the inhibition rate of 50%, IC50), Evaluation 1

CC(O)(CO)C(F)(F)Oc1ccc(-c2nccs2)c2oc(N3CC4CC(C3)N4)nc12 (racemic) [Example 326, 3-((2-(3,6-Diazabicyclo[3.1.1]heptan-3-yl)-7-(thiazol-2-yl)benzo[d]oxazol-4-yl)oxy)-3,3-difluoro-2-methylpropane-1,2-diol]
IC50 (PDE4; [2]): < 100 nM
Residual ratio (% remaining for 30-minute reaction) [1]: A (A: a % remaining rate of 75% or more)

CC(O)(CO)C(F)(F)Oc1ccc(-c2nccs2)c2oc(N3CC4CC(C3)N4)nc12 (single isomer, unassigned) [Example 364, 3-((2-(3,6-Diazabicyclo[3.1.1]heptan-3-yl)-7-(thiazol-2-yl)benzo[d]oxazol-4-yl)oxy)-3,3-difluoro-2-methylpropane-1,2-diol]
IC50 (PDE4; [2]): < 100 nM
Residual ratio (% remaining for 30-minute reaction) [1]: A (A: a % remaining rate of 75% or more)

CC(O)(CO)C(F)(F)Oc1ccc(-c2nccs2)c2oc(N3CC4CC(C3)N4)nc12 (single isomer, unassigned) [Example 365, 3-((2-(3,6-Diazabicyclo[3.1.1]heptan-3-yl)-7-(thiazol-2-yl)benzo[d]oxazol-4-yl)oxy)-3,3-difluoro-2-methylpropane-1,2-diol]
IC50 (PDE4; [2]): < 100 nM
Residual ratio (% remaining for 30-minute reaction) [1]: A (A: a % remaining rate of 75% or more)

CC(O)C(F)(F)Oc1ccc(-c2nccs2)c2oc(N3CC4CC(C3)N4O)nc12 (single isomer, unassigned) [Example 372, 3-(4-(1,1-Difluoro-2-hydroxypropoxy)-7-(thiazol-2-yl)benzo[d]oxazol-2-yl)-3,6-diazabicyclo[3.1.1]heptan-6-ol]
IC50 (PDE4; [2]): < 100 nM
Residual ratio (% remaining for 30-minute reaction) [1]: B (B: 60% or more and less than 75%)

CC(O)C(F)(F)Oc1ccc(-c2nccs2)c2oc(N3CC4CC(C3)N4O)nc12 (single isomer, unassigned) [Example 373, 3-(4-(1,1-Difluoro-2-hydroxypropoxy)-7-(thiazol-2-yl)benzo[d]oxazol-2-yl)-3,6-diazabicyclo[3.1.1]heptan-6-ol]
IC50 (PDE4; [2]): < 100 nM
Residual ratio (% remaining for 30-minute reaction) [1]: B (B: 60% or more and less than 75%)

FC(F)(F)Oc1c(Cl)cc(-n2cccn2)c2oc(N3CC4CCC(C3)N4)nc12 [Example 5, 2-(3,8-Diazabicyclo[3.2.1]octan-3-yl)-5-chloro-7-(1H-pyrazol-1-yl)-4-(trifluoromethoxy)benzo[d]oxazole]
IC50 (PDE4; [3]): < 100 nM
Residual ratio (% remaining for 30-minute reaction) [1]: B (B: 60% or more and less than 75%)

FC(F)(F)Oc1c(Cl)cc(-c2cscn2)c2oc(N3CC4CCC(C3)N4)nc12 [Example 8, 2-(3,8-Diazabicyclo[3.2.1]octan-3-yl)-5-chloro-7-(thiazol-4-yl)-4-(trifluoromethoxy)benzo[d]oxazole]
IC50 (PDE4; [3]): < 100 nM
Residual ratio (% remaining for 30-minute reaction) [1]: A (A: a % remaining rate of 75% or more)

Fc1ccc(-c2cc(Cl)c(OC(F)(F)F)c3nc(N4CC5CCC(C4)N5)oc23)nc1 [Example 10, 2-(3,8-Diazabicyclo[3.2.1]octan-3-yl)-5-chloro-7-(5-fluoropyridin-2-yl)-4-(trifluoromethoxy)benzo[d]oxazole]
IC50 (PDE4; [3]): < 100 nM
Residual ratio (% remaining for 30-minute reaction) [1]: A (A: a % remaining rate of 75% or more)

FC(F)(F)c1c(Cl)cc(-c2ccccn2)c2oc(N3CC4CCCC(C3)N4)nc12 [Example 12, 2-(3,9-Diazabicyclo[3.3.1]nonan-3-yl)-5-chloro-7-(pyridin-2-yl)-4-(trifluoromethyl)benzo[d]oxazole]
IC50 (PDE4; [3]): < 100 nM
Residual ratio (% remaining for 30-minute reaction) [1]: B (B: 60% or more and less than 75%)

FC(F)(F)c1c(Cl)cc(-n2cccn2)c2oc(N3CC4CC(C3)N4)nc12 [Example 17, 2-(3,6-Diazabicyclo[3.1.1]heptan-3-yl)-5-chloro-7-(1H-pyrazol-1-yl)-4-(trifluoromethyl)benzo[d]oxazole]
IC50 (PDE4; [3]): < 100 nM
Residual ratio (% remaining for 30-minute reaction) [1]: B (B: 60% or more and less than 75%)

OC(c1cc(-c2nccs2)c2oc(N3CC4CCC(C3)N4)nc2c1)C(F)F (stereo not shown) [Example 104, 1-(2-(3,8-Diazabicyclo[3.2.1]octan-3-yl)-7-(thiazol-2-yl)benzo[d]oxazol-5-yl)-2,2-difluoroethan-1-ol]
IC50 (PDE4; [3]): < 100 nM
Residual ratio (% remaining for 30-minute reaction) [1]: B (B: 60% or more and less than 75%)

FC(F)(F)C(OCc1nnn[nH]1)c1ccc(-c2nccs2)c2oc(N3CC4CCC(C3)N4)nc12 (stereo not shown) [Example 230, 4-(1-((1H-tetrazol-5-yl)methoxy)-2,2,2-trifluoroethyl)-2-(3,8-diazabicyclo[3.2.1]octan-3-yl)-7-(thiazol-2-yl)benzo[d]oxazole]
IC50 (PDE4; [2]): < 100 nM
Residual ratio (% remaining for 30-minute reaction) [1]: A (A: a % remaining rate of 75% or more)

FC(F)(F)C(OCc1nnn[nH]1)c1ccc(-c2nccs2)c2oc(N3CC4CC(C3)N4)nc12 (stereo not shown) [Example 231, 4-(1-((1H-tetrazol-5-yl)methoxy)-2,2,2-trifluoroethyl)-2-(3,6-diazabicyclo[3.1.1]heptan-3-yl)-7-(thiazol-2-yl)benzo[d]oxazole]
IC50 (PDE4; [2]): < 100 nM
Residual ratio (% remaining for 30-minute reaction) [1]: A (A: a % remaining rate of 75% or more)

c1csc(-c2ccc(OC3CCOCC3)c3nc(N4CC5CCC(C4)N5)oc23)n1 [Example 254, 2-(3,8-Diazabicyclo[3.2.1]octan-3-yl)-4-((tetrahydro-2H-pyran-4-yl)oxy)-7-(thiazol-2-yl)benzo[d]oxazole]
IC50 (PDE4; [2]): < 100 nM
Residual ratio (% remaining for 30-minute reaction) [1]: A (A: a % remaining rate of 75% or more)

C[C@@H](O)COc1ccc(-c2nccs2)c2oc(N3CC4CC(C3)N4)nc12 [Example 259, (2R)-1-((2-(3,6-diazabicyclo[3.1.1]heptan-3-yl)-7-(thiazol-2-yl)benzo[d]oxazol-4-yl)oxy)propan-2-ol]
IC50 (PDE4; [2]): < 100 nM
Residual ratio (% remaining for 30-minute reaction) [1]: A (A: a % remaining rate of 75% or more)

OC1CC(Oc2ccc(-c3nccs3)c3oc(N4CC5CC(C4)N5)nc23)C1 (stereo not shown) [Example 285, 3-((2-(3,6-Diazabicyclo[3.1.1]heptan-3-yl)-7-(thiazol-2-yl)benzo[d]oxazol-4-yl)oxy)cyclobutan-1-ol]
IC50 (PDE4; [2]): < 100 nM
Residual ratio (% remaining for 30-minute reaction) [1]: A (A: a % remaining rate of 75% or more)

c1csc(-c2ccc(OC3CCOCC3)c3nc(N4CC5CC(C4)N5)oc23)n1 [Example 294, 2-(3,6-Diazabicyclo[3.1.1]heptan-3-yl)-4-((tetrahydro-2H-pyran-4-yl)oxy)-7-(thiazol-2-yl)benzo[d]oxazole]
IC50 (PDE4; [2]): < 100 nM
Residual ratio (% remaining for 30-minute reaction) [1]: A (A: a % remaining rate of 75% or more)

CC(C)(O)C(F)(F)Oc1ccc(-n2cccn2)c2oc(N3CC4CC(C3)N4)nc12 [Example 304, 1-((2-(3,6-Diazabicyclo[3.1.1]heptan-3-yl)-7-(1H-pyrazol-1-yl)benzo[d]oxazol-4-yl)oxy)-1,1-difluoro-2-methylpropan-2-ol]
IC50 (PDE4; [2]): < 100 nM
Residual ratio (% remaining for 30-minute reaction) [1]: A (A: a % remaining rate of 75% or more)

c1ccc(Oc2ccc(-c3nccs3)c3oc(N4CC5CC(C4)N5)nc23)nc1 [Example 337, 2-(3,6-Diazabicyclo[3.1.1]heptan-3-yl)-4-(pyridin-2-yloxy)-7-(thiazol-2-yl)benzo[d]oxazole]
Residual ratio (% remaining for 30-minute reaction) [1]: B (B: 60% or more and less than 75%)
